Measurements from PMC8539010, “Utility of Bioluminescent Homogeneous Nucleotide Detection Assays in Measuring Activities of Nucleotide-Sugar Dependent Glycosyltransferases and Studying Their Inhibitors” (Molecules, 2021).

Key:
[1] = molecular target: T1, FUT7 (Fucosyltransferase 7) (Homo sapiens, UniProt Q11130); assay: GDP-Glo bioluminescent enzyme assay, dose response with fetuin and GDP-fucose; assay type: biochemical
T1 sequence (Q11130 1-342): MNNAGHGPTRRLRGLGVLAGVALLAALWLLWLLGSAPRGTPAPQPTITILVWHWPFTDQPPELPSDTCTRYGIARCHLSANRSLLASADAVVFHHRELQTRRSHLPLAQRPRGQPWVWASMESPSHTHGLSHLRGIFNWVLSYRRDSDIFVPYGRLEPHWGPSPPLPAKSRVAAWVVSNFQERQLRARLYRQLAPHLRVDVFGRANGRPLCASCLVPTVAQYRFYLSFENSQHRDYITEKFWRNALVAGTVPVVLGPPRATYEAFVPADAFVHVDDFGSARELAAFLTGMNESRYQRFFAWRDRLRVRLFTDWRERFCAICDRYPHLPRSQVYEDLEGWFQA

[2] = molecular target: T2, OGT (O-GlcNAc Transferase) (Homo sapiens, UniProt O15294); assay: UDP-Glo bioluminescent enzyme assay, dose response with OGT peptide and UDP-GlcNAc; assay type: biochemical
T2 sequence (O15294 2-236 isoform O15294-4): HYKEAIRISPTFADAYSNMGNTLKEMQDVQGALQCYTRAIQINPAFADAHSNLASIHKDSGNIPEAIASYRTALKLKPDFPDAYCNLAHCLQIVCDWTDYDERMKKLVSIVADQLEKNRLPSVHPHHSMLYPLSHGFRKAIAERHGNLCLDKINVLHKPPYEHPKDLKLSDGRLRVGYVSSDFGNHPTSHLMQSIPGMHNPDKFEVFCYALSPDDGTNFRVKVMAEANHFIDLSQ

Row | IC50 [2] | Structure (SMILES) | IC50 [1]
1 |  | O=C(O)c1cc(O)c(O)c(O)c1 [Gallic acid] | 0.6 µM
2 | 58 µM | O=C(O)C1CC(=O)N(CCC23CC4CC(CC(C4)C2)C3)C(=Nc2ccc(Cl)cc2)S1 (stereo not drawn) [ST045849] | 
3 | 55 µM | N#Cc1c(SCc2ccc(C(=O)O)cc2)nc2c(c1-c1cccs1)CCCC2 [ST078925] | 
